These results are taken from patent publication US4657861A, “S-tetrahydroprotoberberineoxidase, process for producing the same and use thereof” (priority 1984, dated 1987).

Read-outs that look alike come from different tables or passages of the source.

The target of data set [1] is T1, S-tetrahydroprotoberberineoxidase (Berberis wilsoniae, UniProt F1BVB6). Conditions: pH 8.9.
The target of data set [2] is T1, S-tetrahydroprotoberberineoxidase. Nature of the data set: Enzymatic oxidation of R,S-substrates with S-tetrahydroprotoberberineoxidase preparation, photometric analysis. Conditions: 37° C.; for Fate of R-form under enzymatic oxidation: pH=8.9; for Conversion of S-form into oxidized product: pH=8.9, admission of air.
Data set [3] shares this target. Nature of the data set: KM value of S-tetrahydroprotoberberineoxidase for substrate. Conditions: at 40° C. and pH 8.9. More on the design: S-tetrahydroprotoberberineoxidase can be obtained by extraction from plant materials; from tissue; host or cells: plant material (Berberis wilsoniae inferred). The data set is classed as biochemical, Berberis wilsonae var. subcaulialata. Here is the method: KM value for R,S-corypalmine at 40° C. and pH 8.9, 1.3 μMoles

The target in data set [4] is T2, S-tetrahydroprotoberberineoxidase immobilized on calcium alginate (Berberis wilsoniae, UniProt F1BVB6).
T2 construct: S-tetrahydroprotoberberineoxidase can be obtained by extraction from plant materials; from tissue; host or cells: plant material (Berberis wilsoniae inferred)
T2 sequence (F1BVB6 25-530): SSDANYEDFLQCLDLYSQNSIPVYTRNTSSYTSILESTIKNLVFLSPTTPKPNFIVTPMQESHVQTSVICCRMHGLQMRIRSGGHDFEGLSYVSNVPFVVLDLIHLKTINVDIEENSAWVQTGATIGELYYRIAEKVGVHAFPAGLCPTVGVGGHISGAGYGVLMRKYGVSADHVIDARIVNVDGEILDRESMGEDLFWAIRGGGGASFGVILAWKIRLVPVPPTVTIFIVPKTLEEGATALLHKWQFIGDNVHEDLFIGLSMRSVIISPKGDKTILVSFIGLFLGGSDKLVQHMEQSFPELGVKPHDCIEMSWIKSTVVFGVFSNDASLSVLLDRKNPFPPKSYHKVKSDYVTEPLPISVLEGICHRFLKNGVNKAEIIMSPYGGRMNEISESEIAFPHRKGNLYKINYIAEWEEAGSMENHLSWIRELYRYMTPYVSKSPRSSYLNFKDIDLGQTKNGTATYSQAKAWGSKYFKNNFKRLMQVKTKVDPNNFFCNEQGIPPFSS
The data set can be described thus: Enzymatic oxidation with S-tetrahydroprotoberberineoxidase immobilized on calcium alginate, photometric analysis. The data set is classed as biochemical, Berberis wilsonae var. subcaulialata. Conditions: immobilized enzyme, 30° C., 150 hours, pH=8.9, admission of air.

Data set [5] addresses T1, S-tetrahydroprotoberberineoxidase. The data set can be described thus: Inhibition of S-tetrahydroprotoberberineoxidase. The class given is biochemical, Berberis wilsonae var. subcaulialata. More on the design: S-tetrahydroprotoberberineoxidase can be obtained by extraction from plant materials; from tissue; host or cells: plant material (Berberis wilsoniae inferred).

Regarding `COc1ccc2c(c1)CCN[C@H]2Cc1cc(O)cc(O)c1` [S-[1-(3',5'-dihydroxy-benzyl)-6-methoxy-1,2,3,4-tetrahydroisoquinoline]], the “Conversion of S-form into oxidized product” value in data set [1] (16 h) is 100%.

As to `COc1ccc2c(c1)CCN[C@@H]2Cc1cc(O)cc(O)c1` [R-form], the “Fate of R-form under enzymatic oxidation” value in data set [2] (after 16 hours) is on record as “remained unchanged”.

One may read the Km as the concentration of substrate that gives half-maximal velocity. `COc1cc2c(cc1O)CCN1Cc3c(ccc(OC)c3OC)CC21` (racemic) [R,S-corypalmine]: the Km in data set [3] stood at 1.3 µM.

With `COc1ccc(C[C@@H]2NCCc3cc(OC)c(O)cc32)cc1O` [S-norreticuline], in data set [4], the “Conversion to 1,2-dehydronorreticuline” value was “complete conversion”. Besides, in data set [2] (after 16 hours), the “Conversion of S-form into oxidized product” value was 100%.

As to `COc1cc2c(cc1O)CCN1Cc3c(ccc(OC)c3OC)C[C@@H]21` [S-corypalmine], the “Conversion of S-form into oxidized product” value in data set [1] (2 h) stood at 100%.

On to `O=c1c(O)c(-c2ccc(O)cc2O)oc2cc(O)cc(O)c12` [morin], for which the “Inhibition of the enzyme in the presence of the substance” value in data set [5] was “Complete and reversible inhibition”.

For the compound `COc1ccc2c(c1OC)CN1CCc3cc4c(cc3[C@H]1C2)OCO4` [R-canadine], the “Fate of R-form under enzymatic oxidation” value in data set [2] (after 2 hours) is given as “remained unchanged”.

As for `COc1ccc2c(c1OC)CN1CCc3cc4c(cc3[C@@H]1C2)OCO4` [S-canadine], the “Conversion of S-form into oxidized product” value in data set [2] (after 2 hours) was determined as 100%.

Take `COc1ccc(C[C@H]2NCCc3cc(OC)c(O)cc32)cc1O` [R-norreticuline]: the “Fate of R-form under enzymatic oxidation” value in data set [2] (after 16 hours) was “remained unchanged”.

On to `COc1cc2c(cc1O)CCN1Cc3c(ccc(OC)c3OC)C[C@H]21` [R-corypalmine], for which the “Fate of R-form under enzymatic oxidation” value in data set [2] (after 2 hours) was “remained unchanged”.

As for `CC(=O)CC(C)=O` [acetylacetone], the “Inhibition of the enzyme in the presence of the substance” value in data set [5] is “Complete and reversible inhibition”.
